Measured values: ChEMBL document CHEMBL4819097, “Identification of an allosteric and Smad3-selective inhibitor of p38αMAPK using a substrate-based approach” (Bioorg Med Chem Lett, 2021)
The source made the active and inactive calls. The rule behind the calls is not given here. Peptide text beside a SMILES is read from it.

Columns and labels:
[1] = biological target: T1, Mitogen-activated protein kinase 14 (Homo sapiens, UniProt Q16539); assay: Binding affinity to P38alpha MAPK (unknown origin) using Smad3 as substrate incubated for 1 hr in presence of increasing concentration of ATP by ELISA
T1 sequence (Q16539 whole entry): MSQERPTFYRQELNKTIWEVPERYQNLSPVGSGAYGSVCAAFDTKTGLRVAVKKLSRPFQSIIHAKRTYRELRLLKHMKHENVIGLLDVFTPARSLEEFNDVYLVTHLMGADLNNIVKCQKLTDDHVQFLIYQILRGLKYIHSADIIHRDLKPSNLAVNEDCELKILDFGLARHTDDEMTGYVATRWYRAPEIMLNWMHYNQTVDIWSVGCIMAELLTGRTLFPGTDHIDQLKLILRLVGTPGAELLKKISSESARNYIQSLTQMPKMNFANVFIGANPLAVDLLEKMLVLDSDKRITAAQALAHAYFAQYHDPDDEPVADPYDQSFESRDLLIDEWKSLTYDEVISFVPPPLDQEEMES

[2] = biological target: T1, Mitogen-activated protein kinase 14; assay: Binding affinity to P38alpha MAPK (unknown origin) using Smad3 as substrate incubated for 1 hr in presence of ATP by ELISA based competitive binding potency assay
[3] = biological target: T1, Mitogen-activated protein kinase 14; assay: Binding affinity to recombinant human N-terminal GST-tagged P38alpha MAPK expressed in Escherichia coli using ERKtide as substrate by mobility shift assay
[4] = biological target: T1, Mitogen-activated protein kinase 14; assay: Binding affinity to P38alpha MAPK (unknown origin) using MBP as substrate incubated for 1 hr by ELISA
[5] = biological target: T1, Mitogen-activated protein kinase 14; assay: Binding affinity to P38alpha MAPK (unknown origin) using MAPKAPK2 as substrate incubated for 1 hr by ELISA

| SMILES | Activity [1] | IC50 [2] [µM] | IC50 [3] [µM] | IC50 [4] [µM] | IC50 [5] [µM] |
| --- | --- | --- | --- | --- | --- |
| CC[C@H](C)[C@H](N)C(=O)N[C@@H](CCCCN)C(=O)N[C@H](C(=O)N[C@@H](CCCCN)C(=O)N[C@@H](CCCCN)C(=O)N[C@H](C(=O)N[C@@H](CCC(=O)O)C(=O)N[C@@H](CC(=O)O)C(=O)N[C@@H](C)C(=O)N[C@@H](CO)C(=O)N[C@@H](CC(N)=O)C(=O)N1CCC[C@H]1C(=O)N[C@@H](CC(C)C)C(=O)O)[C@@H](C)CC)[C@@H](C)CC (H-IKIKKIEDASNPL-OH) | – | > 1 | – | – | – |
| CC[C@H](C)[C@H](N)C(=O)N[C@@H](CCCCN)C(=O)N[C@H](C(=O)N[C@@H](CCCCN)C(=O)N[C@@H](CCCCN)C(=O)N[C@H](C(=O)N[C@@H](CCC(=O)O)C(=O)N[C@@H](CC(=O)O)C(=O)N[C@@H](C)C(=O)N[C@@H](CO)C(=O)N[C@@H](CC(N)=O)C(=O)N1CCC[C@H]1C(=O)N[C@@H](CC(C)C)C(=O)N[C@@H](CC(C)C)C(=O)N[C@@H](CC(C)C)C(=O)N[C@@H](CCCCN)C(=O)N[C@@H](CCCNC(=N)N)C(=O)N[C@@H](CCCNC(=N)N)C(=O)NCC(=O)O)[C@@H](C)CC)[C@@H](C)CC (H-IKIKKIEDASNPLLLKRRG-OH) | – | 0.3 | – | – | – |
| CC(C)C[C@H](NC(=O)[C@@H](NC(=O)[C@@H]1CCCN1C(=O)[C@@H]1CCCN1C(=O)[C@@H](N)CC(C)C)C(C)C)C(=O)N[C@H](C(=O)N1CCC[C@H]1C(=O)N[C@@H](CCCNC(=N)N)C(=O)N[C@@H](Cc1cnc[nH]1)C(=O)N[C@H](C(=O)N[C@@H](CCC(=O)O)C(=O)O)[C@@H](C)O)C(C)C (H-LPPVLVPRHTE-OH) | – | > 100 | > 100 | – | – |
| CC[C@H](C)[C@H](NC(=O)[C@H](CCC(=O)O)NC(=O)[C@@H](NC(=O)[C@H](Cc1cnc[nH]1)NC(=O)[C@H](CCCNC(=N)N)NC(=O)[C@@H]1CCCN1C(=O)[C@@H](NC(=O)[C@H](CC(C)C)NC(=O)[C@@H](NC(=O)[C@@H]1CCCN1C(=O)[C@@H]1CCCN1C(=O)[C@@H](N)CC(C)C)C(C)C)C(C)C)[C@@H](C)O)C(=O)N1CCC[C@H]1C(=O)N[C@@H](C)C(=O)N[C@@H](CCC(=O)O)C(=O)N[C@@H](Cc1ccccc1)C(=O)N1CCC[C@H]1C(=O)N1CCC[C@H]1C(=O)N[C@@H](CC(C)C)C(=O)N[C@@H](CC(=O)O)C(=O)O (H-LPPVLVPRHTEIPAEFPPLD-OH) | – | > 100 | > 100 | – | – |
| CC[C@H](C)[C@H](NC(=O)[C@H](CCCCN)NC(=O)[C@H](CC(C)C)NC(=O)CNC(=O)[C@@H]1CCCN1C(=O)[C@H](CC(N)=O)NC(=O)[C@H](CCCNC(=N)N)NC(=O)[C@H](CCCCN)NC(=O)[C@H](CCCCN)NC(=O)CNC(=O)[C@H](CCCCN)NC(=O)[C@@H](N)CO)C(=O)N1CCC[C@H]1C(=O)O (H-SKGKKRNPGLKIP-OH) | – | 2.6 | > 100 | – | – |
| CC(C)C[C@H](NC(=O)[C@H](C)NC(=O)[C@H](CCCNC(=N)N)NC(=O)[C@H](C)NC(=O)[C@H](CCCCN)NC(=O)[C@H](CCCNC(=N)N)NC(=O)[C@H](CCCNC(=N)N)NC(=O)[C@H](CCCNC(=N)N)NC(=O)[C@H](CCCCN)NC(=O)[C@H](CC(C)C)NC(=O)[C@H](CC(C)C)NC(=O)[C@H](CC(C)C)NC(=O)[C@@H]1CCCN1C(=O)[C@H](CC(N)=O)NC(=O)[C@@H](N)CO)C(=O)O (H-SNPLLLKRRRKARAL-OH) | – | 0.29 | – | – | – |

Further lines, results first:

| Activity [1] | IC50 [2] [µM] | IC50 [3] [µM] | IC50 [4] [µM] | IC50 [5] [µM] | SMILES |
| --- | --- | --- | --- | --- | --- |
| inactive | – | – | – | – | Oc1ccc(-c2nc(-c3ccc(F)cc3)c(-c3ccncc3)[nH]2)cc1 |
| Active | 0.0013 | > 100 | > 1 | > 1 | CC[C@H](C)[C@H](N)C(=O)N[C@@H](CCCCN)C(=O)N[C@H](C(=O)N[C@@H](CCCCN)C(=O)N[C@@H](CCCCN)C(=O)N[C@H](C(=O)N[C@@H](CCC(=O)O)C(=O)N[C@@H](CC(=O)O)C(=O)N[C@@H](C)C(=O)N[C@@H](CO)C(=O)N[C@@H](CC(N)=O)C(=O)N1CCC[C@H]1C(=O)N[C@@H](CC(C)C)C(=O)N[C@@H](CC(C)C)C(=O)N[C@@H](CC(C)C)C(=O)N[C@H](C(=O)N[C@@H](CS)C(=O)N[C@@H](CCCNC(=N)N)C(=O)N[C@@H](CCCNC(=N)N)C(=O)N[C@@H](CCCNC(=N)N)C(=O)N[C@@H](CCCCN)C(=O)N[C@@H](C)C(=O)N[C@@H](CCCNC(=N)N)C(=O)N[C@@H](C)C(=O)N[C@@H](CC(C)C)C(=O)O)[C@@H](C)CC)[C@@H](C)CC)[C@@H](C)CC (H-IKIKKIEDASNPLLLICRRRKARAL-OH) |
| – | > 100 | > 100 | – | – | CC[C@H](C)[C@H](NC(=O)[C@H](CCC(=O)O)NC(=O)[C@@H](NC(=O)[C@H](Cc1cnc[nH]1)NC(=O)[C@H](CCCNC(=N)N)NC(=O)[C@@H]1CCCN1C(=O)[C@@H](NC(=O)[C@H](CC(C)C)NC(=O)[C@@H](NC(=O)[C@@H]1CCCN1C(=O)[C@@H]1CCCN1C(=O)[C@@H](N)CC(C)C)C(C)C)C(C)C)[C@@H](C)O)C(=O)N1CCC[C@H]1C(=O)N[C@@H](C)C(=O)N[C@@H](CCC(=O)O)C(=O)N[C@@H](Cc1ccccc1)C(=O)N1CCC[C@H]1C(=O)N1CCC[C@H]1C(=O)N[C@@H](CC(C)C)C(=O)N[C@@H](CC(=O)O)C(=O)N[C@@H](CC(=O)O)C(=O)N[C@@H](Cc1ccc(O)cc1)C(=O)N[C@@H](CO)C(=O)N[C@@H](Cc1cnc[nH]1)C(=O)N[C@@H](CO)C(=O)N[C@H](C(=O)N1CCC[C@H]1C(=O)N[C@@H](CCC(=O)O)C(=O)N[C@@H](CC(N)=O)C(=O)O)[C@@H](C)CC (H-LPPVLVPRHTEIPAEFPPLDDYSHSIPEN-OH) |
| – | 9 | > 100 | – | – | CC[C@H](C)[C@H](NC(=O)[C@H](Cc1c[nH]c2ccccc12)NC(=O)CNC(=O)[C@H](CC(C)C)NC(=O)[C@H](CC(C)C)NC(=O)[C@H](CCCNC(=N)N)NC(=O)[C@H](CS)NC(=O)[C@@H](NC(=O)[C@@H](NC(=O)[C@@H](NC(=O)[C@@H]1CCCN1C(=O)[C@@H]1CCCN1C(=O)[C@@H](NC(=O)[C@H](Cc1ccccc1)NC(=O)[C@@H]1CCCN1C(=O)[C@H](CC(C)C)NC(=O)[C@@H](NC(=O)[C@H](CO)NC(=O)[C@@H](N)CO)[C@@H](C)CC)[C@@H](C)O)[C@@H](C)CC)C(C)C)[C@@H](C)CC)C(=O)N[C@@H](CS)C(=O)N[C@@H](CCCCN)C(=O)NCC(=O)N[C@@H](CCC(=O)O)C(=O)O (H-SSILPFTPPIVICRLLGWICKGE-OH) |
